Assay results: paper PMC6067878, “Lipoate-binding proteins and specific lipoate-protein ligases in microbial sulfur oxidation reveal an atpyical role for an old cofactor” (eLife, 2018)

Assays:
[1] = target: T1, TkLplA (LplA-like lipoate-protein ligase, TK90_0642) (Thioalkalivibrio sp. K90mix, UniProt D3SF90); assay: TLC of lipoyl-AMP from [alpha-32P]ATP; MALDI of lipoylated acceptor; assay type: biochemical; settings: Mg2+, 50 mM sodium phosphate pH 7.8, 37 °C (adenylation), acceptors TkLbpA1 and TkLbpA2
T1 construct: Strep- or His-tagged (pET22b), made in E. coli; single-domain ligase lacking the small domain
T1 sequence (D3SF90 1-363): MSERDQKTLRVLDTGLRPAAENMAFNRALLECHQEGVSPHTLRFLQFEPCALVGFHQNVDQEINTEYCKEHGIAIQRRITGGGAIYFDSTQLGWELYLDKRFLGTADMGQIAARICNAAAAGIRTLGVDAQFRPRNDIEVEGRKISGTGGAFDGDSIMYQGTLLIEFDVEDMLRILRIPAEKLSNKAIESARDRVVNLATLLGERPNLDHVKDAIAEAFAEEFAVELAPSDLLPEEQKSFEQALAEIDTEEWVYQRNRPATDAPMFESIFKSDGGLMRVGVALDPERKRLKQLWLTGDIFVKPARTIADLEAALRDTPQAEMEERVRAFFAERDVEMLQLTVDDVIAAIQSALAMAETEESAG

[2] = target: T2, TkLbpA2 (lipoate-binding protein LbpA2, TK90_0640) (Thioalkalivibrio sp. K90mix, UniProt D3SF88); assay: MALDI mass spectrometry of enzymatic lipoylation; settings: covalent; lipoyl group attached to apo-protein by TkLplA with ATP, 37 °C
T2 construct: gene gcvH; Strep- or His-tagged (pET22b), made in E. coli as apoprotein
T2 sequence (D3SF88 1-145): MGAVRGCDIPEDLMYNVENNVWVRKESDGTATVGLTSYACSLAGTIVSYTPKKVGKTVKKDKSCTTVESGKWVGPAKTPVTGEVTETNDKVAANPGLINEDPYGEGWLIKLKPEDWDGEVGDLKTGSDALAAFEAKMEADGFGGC

[3] = target: T3, TkLbpA1 (lipoate-binding protein LbpA1, TK90_0638) (Thioalkalivibrio sp. K90mix, UniProt D3SF86); assay: MALDI mass spectrometry of enzymatic lipoylation; settings: covalent; lipoyl group attached to apo-protein by TkLplA with ATP, 37 °C
T3 construct: Strep- or His-tagged (pET22b), made in E. coli as apoprotein
T3 sequence (D3SF86 1-148): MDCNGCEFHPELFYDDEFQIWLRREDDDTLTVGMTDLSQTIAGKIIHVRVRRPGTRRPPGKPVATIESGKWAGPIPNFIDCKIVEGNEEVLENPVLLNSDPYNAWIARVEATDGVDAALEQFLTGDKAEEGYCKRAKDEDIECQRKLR

O=C(O)CCCC[C@@H]1CCSS1 (racemic) [lipoic acid, 1,2-dithiolane-3-pentanoic acid]
TLC of lipoyl-AMP from [alpha-32P]ATP; MALDI of lipoylated acceptor [1]: synthesis of both octanoyl-adenylate and lipoyl-adenylate intermediates were readily demonstrated
MALDI mass spectrometry of enzymatic lipoylation [2]: The overall lipoate ligase activity of LplA-like proteins was confirmed by mass spectrometry
MALDI mass spectrometry of enzymatic lipoylation [3]: The overall lipoate ligase activity of LplA-like proteins was confirmed by mass spectrometry
